Laboratory results from patent US10981872B1, “Di(2-aryl hydrozonopropanal) arene derivatives” (King Abdulaziz University, priority 2020, dated 2021).
Like-named read-outs stand apart in the source and are kept apart here.

Key:
[1] = system: human colon carcinoma HCT-116 cells; assay: MTT cell viability assay, HCT-116; format: cell-based
Method: (§1) Human alveolar basal epithelial cell line (A-549) and human colon carcinoma (HCT-116), purchased from ATCC, USA, were used to evaluate the anticancer properties of the compounds. Cells were routinely cultured in RPMI (Roswell Park Memorial Institute Medium), except HCT-116 cells which were cultured in McCoy's medium. All media were supplemented with 10% fetal bovine serum (FBS), 2 mM L-glutamine, 100 units/ml penicillin G sodium, 100 units/ml streptomycin sulphate, and 250 ng/ml amphotericin B. Cells were maintained at sub-confluency at 37° C. in humidified air containing 5% CO2. For sub-culturing, monolayer cells were harvested after trypsin/EDTA treatment at 37° C. Cells were used when confluence had reached 75%. Tested samples were dissolved in dimethyl sulphoxide (DMSO), and then diluted in the assay to begin with the indicated concentration. All cell culture material was obtained from Cambrex BioScience (Copenhagen, Denmark). All chemicals were from Sigma/Aldrich, USA, unless otherwise indicated. All experiments were repeated three times, unless otherwise indicated.
Cytotoxicity of tested samples was measured against different cancer cells using the MTT Cell Viability Assay. The 3-[4,5-dimethylthiazole-2-yl]-2,5-diphenyltetrazolium bromide (MTT) assay is based on the ability of an active mitochondrial dehydrogenase enzyme of living cells to cleave the tetrazolium rings of the yellow MTT and form dark blue insoluble formazan crystals which are largely impermeable to cell membranes, resulting in its accumulation within healthy cells. Dissolution of the cells results in the liberation of crystals, which are then solubilized. The number of viable cells is directly proportional to the level of soluble formazan dark blue color. The extent of the reduction of MTT was quantified by measuring the absorbance at 570 nm.
MTT solution: 5 mg/ml of MTT in 0.9% NaCl.
Acidified isopropanol: 0.04 N HCl in absolute isopropanol.
Cells (0.5×10^5 cells/well), in serum-free media, were plated in a flat bottom 96-well microplate, and treated with 20 μl of different concentrations of the tested samples for 48 h at 37° C., in a humidified 5% CO2 atmosphere. After incubation, media was removed and 40 μl MTT solution/well were added and the cells were incubated for an additional 4 h. MTT crystals were solubilized by adding 180 μl of acidified isopropanol/well and plates were kept at room temperature, followed by photometric determination of the absorbance at 570 nm using a microplate ELISA reader. Triplicate repeats were performed for each concentration and the average was calculated. Data were expressed as the percentage of relative viability compared with the untreated cells compared with the vehicle control, with cytotoxicity indicated by <100% relative viability
The percentage of relative viability was calculated using the following equation: [Absorbance of treated cells/Absorbance of control cells)]×100 Then the half maximal inhibitory concentration (IC50) was calculated from the equation of the concentration vs % of viability curve. Results and Discussion

[2] = MTT cell viability assay, A-549; format: cell-based, human; settings: compared to the tumor cell line HCT116
Method: as §1, with “Tested samples were dissolved in dimethyl sulphoxide (DMSO), and then diluted in the assay to begin with the indicated concentration. All cell culture material was obtained from Cambrex BioScience (Copenhagen, Denmark). All chemicals were from Sigma/Aldrich, USA, unless otherwise indicated. All experiments were repeated three times, unless otherwise indicated.” left out
(§2) Cytotoxicity of tested samples was measured against different cancer cells using the MTT Cell Viability Assay. […] The extent of the reduction of MTT was quantified by measuring the absorbance at 570 nm. […]
(§3) Cells (0.5×10^5 cells/well), in serum-free media, were plated in a flat bottom 96-well microplate, and treated with 20 μl of different concentrations of the tested samples for 48 h at 37° C., in a humidified 5% CO2 atmosphere. […] MTT crystals were solubilized by adding 180 μl of acidified isopropanol/well and plates were kept at room temperature, followed by photometric determination of the absorbance at 570 nm using a microplate ELISA reader. […]

[3] = system: normal human alveolar basal epithelial cell line (A-549); assay: MTT cell viability assay, A-549; format: cell-based; settings: A-549 versus HCT116
Method: as §1, with “Tested samples were dissolved in dimethyl sulphoxide (DMSO), and then diluted in the assay to begin with the indicated concentration. All cell culture material was obtained from Cambrex BioScience (Copenhagen, Denmark). All chemicals were from Sigma/Aldrich, USA, unless otherwise indicated. All experiments were repeated three times, unless otherwise indicated.” left out
as §2, §3

[4] = Homo sapiens, HCT-116, 48 h treatment, read-out: IC50 against the colon cancer cell line HCT 116

Cc1ccc(NN=C(C=O)C(=O)c2ccc(C(=O)/C(C=O)=N/Nc3ccc(C)cc3)cc2)cc1 [Compound 9a]
IC50 ([1]; 48 h treatment, read-out: IC50 against the colon cancer cell line HCT 116): 126 nM

N#Cc1ccccc1N/N=C(/C=O)C(=O)c1ccc(C(=O)/C(C=O)=N/Nc2ccccc2C#N)cc1 [Compound 9b, 2-(2-((E)-1-(4-((Z)-2-(2-(2-cyanophenyl)hydrazineylidene)-3-oxopropanoyl)phenyl)-1,3-dioxopropan-2-ylidene)hydrazineyl)benzonitrile]
IC50 [1, 4]: 299 nM

Cc1ccc(N/N=C(\C=O)C(=O)c2cccc(C(=O)/C(C=O)=N/Nc3ccc(C)cc3)n2)cc1 [Compound 11a, (2E,2′E)-3,3′-(pyridine-2,6-diyl)bis(3-oxo-2-(2-(p-tolyl)hydrazineylidene)propanal)]
IC50 [1, 4]: 277 nM

N#Cc1ccccc1N/N=C(\C=O)C(=O)c1cccc(C(=O)/C(C=O)=N/Nc2ccccc2C#N)n1 [Compound 11b, 2,2′-(((2E,2′E)-pyridine-2,6-diylbis(1,3-dioxopropan-1-yl-2-ylidene))bis(hydrazin-1-yl-2-ylidene))dibenzonitrile]
IC50 [1, 4]: 98 nM
IC50 ([1]; Homo sapiens, HCT-116, 48 h treatment, read-out: IC50 for HCT116 cancer cells): 98 ± 30 nM
Cytotoxic effects on the normal, non-tumorigenic A-549 cell line [2]: only weak cytotoxic effects
Selectivity index [3]: excellent selectivity index

COc1cccc2c1C(=O)c1c(O)c3c(c(O)c1C2=O)C[C@@](O)(C(=O)CO)C[C@@H]3O[C@H]1C[C@H](N)[C@H](O)[C@H](C)O1 [Doxorubicin, reference compound]
IC50 [1, 4]: 126 nM
